# Values quoted from earlier work, collected in patent publication US20130252334A1, “METHOD OF USING TET-INDUCIBLE TRANSGENES” (UNIVERSITY OF ROCHESTER, priority 2010, published 2013).
# What was measured:
# [1] = tested on: rtTA; settings: compared to Dox; Zhu et al. 2007; cited from earlier work
# [2] = molecular target: tet repressor (Escherichia coli, UniProt P04483); settings: relative to tetracycline; Zhu et al. 2007; cited from earlier work
# [3] = versus other related compounds; cited from earlier work
# tet repressor, sequence (P04483 whole entry): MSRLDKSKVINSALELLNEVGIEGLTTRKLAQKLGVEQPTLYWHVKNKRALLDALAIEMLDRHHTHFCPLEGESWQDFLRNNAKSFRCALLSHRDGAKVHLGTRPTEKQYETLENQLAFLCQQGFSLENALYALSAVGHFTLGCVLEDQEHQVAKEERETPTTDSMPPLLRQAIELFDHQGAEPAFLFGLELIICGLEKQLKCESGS
smiles,measurement,setting,value
"C[C@H]1c2ccc(C(C)(C)C)c(O)c2C(O)=C2C(=O)[C@]3(O)C(O)=C(C(N)=O)C(=O)[C@@H](N(C)C)[C@@H]3[C@@H](O)[C@@H]21 [9-TB, 9-t-butyl doxycycline]",potency in activating transcription from the rtTA,[1],10 times
same,"binding affinity on the tet repressor, fold higher",[2],10 fold
same,hydrophobicity/lipophilicity,[3],much more hydrophobic/lipophylic than other related compounds
